The Ki is a dissociation constant, usually derived from enzyme kinetics or from competition with a known ligand. Low values mean tighter binding, high ones weaker binding.

Ki data for 27 compounds are collected here from ChEMBL document CHEMBL3098036, “Sulfonamide inhibition studies of the δ-carbonic anhydrase from the diatom Thalassiosira weissflogii” (Bioorg Med Chem Lett, 2014).

The experiment concerns the target T1, Delta carbonic anhydrase (Conticribra weissflogii, UniProt Q5U9J1).
T1 sequence (Q5U9J1 whole entry): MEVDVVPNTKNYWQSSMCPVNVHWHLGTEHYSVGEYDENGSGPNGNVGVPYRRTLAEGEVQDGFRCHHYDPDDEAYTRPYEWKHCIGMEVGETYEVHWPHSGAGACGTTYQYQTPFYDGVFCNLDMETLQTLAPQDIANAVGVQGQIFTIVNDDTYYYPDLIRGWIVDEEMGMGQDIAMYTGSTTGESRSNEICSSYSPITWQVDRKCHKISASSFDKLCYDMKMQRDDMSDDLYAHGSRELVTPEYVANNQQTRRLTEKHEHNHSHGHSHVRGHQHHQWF

`NS(=O)(=O)c1ccc(CO)cc1` came in with a Ki of 15200 nM. `CC(=O)/N=c1/sc(S(N)(=O)=O)nn1C` [METHAZOLAMIDE] had a Ki of 170 nM. For `O=C1NS(=O)(=O)c2ccccc21` [SACCHARIN], the Ki was found to be 9200 nM. In turn, `CC1(C)O[C@@H]2[C@@H](CO[C@@]3(COS(N)(=O)=O)OC(C)(C)O[C@@H]23)O1` [TOPIRAMATE] gave a Ki of 392 nM.

Turning to `NS(=O)(=O)Cc1noc2ccccc12` [ZONISAMIDE], the affinity corresponds to a Ki of 404 nM. The Ki values of the last two compounds are within 1.5-fold of each other. In the case of `Cc1ccc(-c2cc(C(F)(F)F)nn2-c2ccc(S(N)(=O)=O)cc2)cc1` [CELECOXIB] it was 265 nM; in that of `NS(=O)(=O)c1cccc(S(N)(=O)=O)c1`, 424 nM.

With `NS(=O)(=O)c1cc(Cl)c(Cl)c(S(N)(=O)=O)c1` [DICHLORPHENAMIDE], the affinity corresponds to a Ki of 458 nM. As for `Nc1cccc(S(N)(=O)=O)c1`, the affinity corresponds to a Ki of 295 nM. This Ki is about 1.6-fold lower than that of the compound before. Compound `Nc1nnc(S(N)(=O)=O)s1` gave a Ki of 10600 nM.

Compound `Nc1ccc(S(=O)(=O)NCCc2ccc(S(N)(=O)=O)cc2)cc1` registered a Ki of 862 nM. In turn, `NS(=O)(=O)c1ccc(CCNS(=O)(=O)c2ccc([N+](=O)[O-])cc2CO)cc1` gave an inhibition constant Ki of 7880 nM. For `NS(=O)(=O)c1cc(Cl)cc(Cl)c1O`, the affinity, expressed as Ki, was 762 nM. As to `Nc1nccc(Nc2ccc(S(N)(=O)=O)cc2)n1`, the Ki amounted to 615 nM. The figure for `Cn1nc(S(N)(=O)=O)sc1=N` is 5530 nM. For the compound `NS(=O)(=O)c1ccc(S(=O)(=O)Nc2cccc3c(Cl)c[nH]c23)cc1`, the affinity, expressed as Ki, was 375 nM. On to `Nc1ccc(S(=O)(=O)Nc2ccc(S(N)(=O)=O)cc2)cc1`, for which the affinity, expressed as Ki, was 3740 nM. Consider `Nc1ccc(S(N)(=O)=O)cc1Cl`, for which the Ki is 167 nM. Consider `Nc1ccc(S(=O)(=O)NCc2ccc(S(N)(=O)=O)cc2)cc1`, for which the Ki came to 897 nM. With `NS(=O)(=O)c1ccc(C(=O)O)cc1` [CARZENIDE], the affinity, expressed as Ki, was 871 nM.

`Nc1ccc(S(N)(=O)=O)cc1Br` yielded a Ki of 94.6 nM. The compound `NCc1ccc(S(N)(=O)=O)cc1` [MAFENIDE] came in with a Ki of 424 nM.

With `NS(=O)(=O)c1nnc(NS(=O)(=O)c2ccccc2)s1` [BENZOLAMIDE], the inhibition constant Ki was 394 nM. In turn, `NS(=O)(=O)c1ccc(CCO)cc1` displayed a Ki of 4700 nM. With `CCN[C@H]1CN(CCCOC)S(=O)(=O)c2sc(S(N)(=O)=O)cc21` [BRINZOLAMIDE], the inhibition constant (Ki) came out at 118 nM.

For `Cc1ccc(S(N)(=O)=O)cc1` [P-TOLUENESULFONAMIDE], the affinity, expressed as Ki, was 424 nM. This Ki is about 3.6-fold higher than that of the compound before. The compound `Nc1ccc(S(=O)(=O)Nc2nnc(S(N)(=O)=O)s2)cc1` displayed an inhibitory constant (Ki) of 12400 nM.
